Values quoted from earlier work as cited in PubChem BioAssay AID1259409 (Chemical Carcinogenesis Research Information System (CCRIS), 2018).

Tested on: rodent chemically induced tumor inhibition, incidence and multiplicity
Experiment: CCRIS tumor inhibitor studies

## CC1=C(/C=C/C(C)=C/C=C/C(C)=C/C=C/C=C(C)/C=C/C=C(C)/C=C/C2=C(C)CCCC2(C)C)C(C)(C)CCC1
Carcinogen: 7,12-DIMETHYLBENZ[A]ANTHRACENE, 57-97-6, Dose [Inhibitor]: 0, 400 NMOL IN 200 µL ACETONE 2/WK BEGINNING 1 WK POST CARCINOGEN DOSE APPLIED SIMULTANEOUSLY WITH PROMOTER FOR 20 WK (S, Route [Inhibitor]: DERMAL, Species: MOUSE, Strain/Sex: ICR/?, Target Tissue: Type of Lesion: SKIN: PAPILLOMA, Dose [Carcinogen]: 100 UG ONCE, Promoter: 12-O-TETRADECANOYLPHORBOL-13-ACETATE, 16561-29-8
  tumour outcome (control, treated, inhibition, significance): 69%, 25%, 64%, not calculated
Carcinogen: 7,12-DIMETHYLBENZ[A]ANTHRACENE, 57-97-6, Dose [Inhibitor]: 0, 1430 IU/KG IN 100 µL PEANUT OIL 5 D/WK BEGINNING 1 WK POST CARCINOGEN DOSE AND CONTINUING FOR DURATION OF STUDY (STUD, Route [Inhibitor]: GAVAGE, Species: MOUSE, Strain/Sex: HRA/SKH/FEMALE, Target Tissue: Type of Lesion: SKIN: CARCINOMA, Dose [Carcinogen]: 10 NMOL IN 50 µL ACETONE ONCE
  tumour outcome (control, treated, inhibition, significance): 7/25 (28%), 8/37 (22%), 21%, not calculated
Carcinogen: 7,12-DIMETHYLBENZ[A]ANTHRACENE, 57-97-6, Dose [Inhibitor]: 0, 1430 IU/KG IN 100 µL PEANUT OIL 5 D/WK BEGINNING 1 WK POST CARCINOGEN DOSE AND CONTINUING FOR DURATION OF STUDY (STUD, Route [Inhibitor]: GAVAGE, Species: MOUSE, Strain/Sex: HRA/SKH/FEMALE, Target Tissue: Type of Lesion: SKIN: PAPILLOMA, Dose [Carcinogen]: 10 NMOL IN 50 µL ACETONE ONCE
  outcome: 97%, 77%, 21%, not calculated at 20 wk; 68%, 52%, 24%, not calculated at 40 wk
Carcinogen: 7,12-DIMETHYLBENZ[A]ANTHRACENE, 57-97-6, Dose [Inhibitor]: 140 UG (1.5 MG/KG BW) IN 0.4 ML MINERAL OIL 3/WK FOR 28 WK (STUDY DURATION: 28 WK), Route [Inhibitor]: ORAL, Species: HAMSTER, Strain/Sex: SYRIAN/MALE, Target Tissue: Type of Lesion: SKIN: CARCINOMA, Dose [Carcinogen]: 0.1% IN HEAVY MINERAL OIL APPLIED TO BUCCAL POUCH 3/WK FOR 28 WK, Promoter: NONE USED
  tumour outcome (control, treated, inhibition, significance): 20/20 (100%), 11/20 (55%), 45%, not calculated
Carcinogen: 7,12-DIMETHYLBENZ[A]ANTHRACENE, 57-97-6, Dose [Inhibitor]: 250 MG/KG IN DIET BEGINNING 6 WK PRIOR TO CARCINOGEN DOSE AND CONTINUING FOR 21-22 WK POST CARCINOGEN DOSE (STUDY DURATI, Route [Inhibitor]: ORAL, Species: RAT, Strain/Sex: SPRAGUE-DAWLEY/MALE, Target Tissue: Type of Lesion: SALIVARY GLAND: TUMOR, Dose [Carcinogen]: 1 MG IN 20 µL OLIVE OIL INJECTED INTO SUBMANDIBULAR GLAND ONCE, Promoter: NONE USED
  tumour outcome (control, treated, inhibition, significance): 20/28 (71%), 20/30 (67%), 6%, not significant
Carcinogen: BENZO[A]PYRENE, 50-32-8, Dose [Inhibitor]: 0, 0.5 G/G OF DIET FOR 6 WK (STUDY DURATION: 9 WK), Route [Inhibitor]: ORAL, Species: MOUSE, Strain/Sex: NIGP(S)/FEMALE, Target Tissue: Type of Lesion: LUNG: ADENOMA, Dose [Carcinogen]: 0.5 MG INJECTED IN THE SCAPULAR REGION OF NEWBORN MICE ONCE, Promoter: NONE USED
  tumour outcome (control, treated, inhibition, significance): 56%, 38%, 32%, not calculated
Carcinogen: BENZO[A]PYRENE, 50-32-8, Dose [Inhibitor]: 0, 0.5 G/G OF DIET FOR 6 WK (STUDY DURATION: 9 WK), Route [Inhibitor]: ORAL, Species: MOUSE, Strain/Sex: NIGP(S)/MALE, Target Tissue: Type of Lesion: LUNG: ADENOMA, Dose [Carcinogen]: 0.5 MG INJECTED IN THE SCAPULAR REGION OF NEWBORN MICE ONCE, Promoter: NONE USED
  tumour outcome (control, treated, inhibition, significance): 37%, 38%, -3%, not calculated
Carcinogen: BENZO[A]PYRENE, 50-32-8, Dose [Inhibitor]: 0, 4.7 MICROMOLAR/D IN 0.1 ML PEANUT OIL BEGINNING 2 WK PRIOR TO CARCINOGEN TREATMENT AND CONTINUING TO 2 WK POST CARCIN, Route [Inhibitor]: GAVAGE, Species: MOUSE, Strain/Sex: SWISS/FEMALE, Target Tissue: Type of Lesion: FORESTOMACH: TUMOR, Dose [Carcinogen]: 1 MG 2/WK IN 0.1 ML PEANUT OIL FOR 4 WK, Promoter: NONE USED
  tumour outcome (control, treated, inhibition, significance): 20/20 (100%), 3/20 (15%), 85%, p<0.001
Carcinogen: BENZO[A]PYRENE, 50-32-8, Dose [Inhibitor]: 2.5 MG/D IN DIET FOLLOWED 1 MO LATER BY 25 MG/0.250 KG BW BY GAVAGE 2/WK 2 HR PRIOR TO CARCINOGEN DOSE (STUDY DURATION:, Route [Inhibitor]: ORAL, GAVAGE, Species: MOUSE, Strain/Sex: SWISS/FEMALE, Target Tissue: Type of Lesion: SKIN: PAPILLOMA, SQUAMOUS EPITHELIOMA, Dose [Carcinogen]: 100 UG IN ACETONE 2/WK BEGINNING 1 MO AFTER AGENT DOSE AND CONTINUING FOR DURATION OF STUDY, Promoter: NONE USED
  tumour outcome (control, treated, inhibition, significance): @65%, @55%, 15%, p<0.05
Carcinogen: BENZO[A]PYRENE, 50-32-8, UV IRRADIATION, Carcinogen: BENZO[A]PYRENE, 50-32-8, UV IRRADIATION, Dose [Inhibitor]: 2.5 MG/D IN DIET FOLLOWED 1 MO LATER BY 25 MG/0.250 KG BW BY GAVAGE 2/WK GIVEN 2 HR PRIOR TO CARCINOGEN DOSE (STUDY DURA, Route [Inhibitor]: ORAL, GAVAGE, Species: MOUSE, Strain/Sex: SWISS/FEMALE, Target Tissue: Type of Lesion: SKIN: PAPILLOMA, SQUAMOUS EPITHELIOMA, Dose [Carcinogen]: 100 UG IN ACETONE 2/WK BEGINNING 1 MO AFTER AGENT DOSE AND CONTINUING FOR DURATION OF STUDY PLUS UV IRRADIATION (5890 ER, Promoter: NONE USED
  tumour outcome (control, treated, inhibition, significance): @93%, @40%, @57%, not calculated
Carcinogen: DIESEL EXHAUST PARTICLES, Dose [Inhibitor]: 0, 0.02% IN BASAL DIET FOR DURATION FO STUDY (STUDY DURATION: 12 MO), Route [Inhibitor]: ORAL, Species: MOUSE, Strain/Sex: ICR/MALE, Target Tissue: Type of Lesion: LYMPHATIC SYSTEM: LYMPHOMA, Dose [Carcinogen]: 0.2 MG 1/WK FOR 10 WK, Promoter: NONE USED
  tumour outcome (control, treated, inhibition, significance): 6/29 (21%), 5/30 (17%), 20%, not calculated
Carcinogen: DIESEL EXHAUST PARTICLES, Dose [Inhibitor]: 0, 0.02% IN BASAL DIET FOR DURATION OF STUDY (STUDY DURATION: 12 MO), Route [Inhibitor]: ORAL, Species: MOUSE, Strain/Sex: ICR/ MALE, Target Tissue: Type of Lesion: LYMPHATIC SYSTEM: LYMPHOMA, Dose [Carcinogen]: 0.1 MG 1/WK FOR 10 WK, Promoter: NONE USED
  tumour outcome (control, treated, inhibition, significance): 3/29 (10%), 2/30 (7%), 30%, not calculated
Carcinogen: DIESEL EXHAUST PARTICLES, Dose [Inhibitor]: 0, 0.02% IN BASAL DIET FOR DURATION OF STUDY (STUDY DURATION: 12 MO), Route [Inhibitor]: ORAL, Species: MOUSE, Strain/Sex: ICR/MALE, Target Tissue: Type of Lesion: LUNG: TUMOR, Dose [Carcinogen]: 0.05 MG 1/WK FOR 10 WK, Promoter: NONE USED
  tumour outcome (control, treated, inhibition, significance): 9/30 (30%), 6/30 (20%), 33%, not calculated
Carcinogen: DIESEL EXHAUST PARTICLES, Dose [Inhibitor]: 0, 0.02% IN BASAL DIET FOR DURATION OF STUDY (STUDY DURATION: 12 MO), Route [Inhibitor]: ORAL, Species: MOUSE, Strain/Sex: ICR/MALE, Target Tissue: Type of Lesion: LUNG: TUMOR, Dose [Carcinogen]: 0.1 MG 1/WK FOR 10 WK, Promoter: NONE USED
  tumour outcome (control, treated, inhibition, significance): 9/29 (31%), 10/30 (33%), -6%, not calculated
Carcinogen: DIESEL EXHAUST PARTICLES, Dose [Inhibitor]: 0, 0.02% IN BASAL DIET FOR DURATION OF STUDY (STUDY DURATION: 12 MO), Route [Inhibitor]: ORAL, Species: MOUSE, Strain/Sex: ICR/MALE, Target Tissue: Type of Lesion: LUNG:TUMOR, Dose [Carcinogen]: 0.2 MG 1/WK FOR 10 WK, Promoter: NONE USED
  tumour outcome (control, treated, inhibition, significance): 7/29 (24%), 8/30 (27%), -13%, not calculated
Carcinogen: DIESEL EXHAUST PARTICLES, Dose [Inhibitor]: 0, 0.02% IN BASAL DIET FOR DURATION OF STUDY (STUDY DURATION: 12 MO), Route [Inhibitor]: ORAL, Species: MOUSE, Strain/Sex: ICR/MALE, Target Tissue: Type of Lesion: LYMPHATIC SYSTEM: LYMPHOMA, Dose [Carcinogen]: 0.05 MG 1/WK FOR 10 WK, Promoter: NONE USED
  tumour outcome (control, treated, inhibition, significance): 3/30 (10%), 4/30 (13%), -30%, not calculated
Carcinogen: DIESEL EXHAUST PARTICLES, Dose [Inhibitor]: 0, 0.02% IN HIGH FAT DIET FOR DURATION OF STUDY (STUDY DRUATION : 12 MO), Route [Inhibitor]: ORAL, Species: MOUSE, Strain/Sex: ICR/MALE, Target Tissue: Type of Lesion: LYMPHATIC SYSTEM: LYMPHOMA, Dose [Carcinogen]: 0.05 MG 1/WK FOR 10 WK, Promoter: NONE USED
  tumour outcome (control, treated, inhibition, significance): 5/30 (17%), 5/30 (17%), 0%, not significant
Carcinogen: DIESEL EXHAUST PARTICLES, Dose [Inhibitor]: 0, 0.02% IN HIGH FAT DIET FOR DURATION OF STUDY (STUDY DURATION: 12 MO), Route [Inhibitor]: ORAL, Species: MOUSE, Strain/Sex: ICR/MALE, Target Tissue: Type of Lesion: LUNG: TUMOR, Dose [Carcinogen]: 0.05 MG 1/WK FOR 10 WK, Promoter: NONE USED
  tumour outcome (control, treated, inhibition, significance): 12/30 (40%), 9/30 (30%), 25%, not calculated
